Reference: article PMC10480161, “Identification of potent and selective N-myristoyltransferase inhibitors of Plasmodium vivax liver stage hypnozoites and schizonts” (Nature Communications, 2023)
Several values for one entry are separate records, joined by “and”; a condition that tells them apart may be missing. Equal entries are not always repeated.

Assays:
P. vivax schizonts = assay: P. vivax liver stage assay, schizonts; type: cell-based, Plasmodium vivax; settings: for Number of liverstage Schizonts per well: 20 µM, 8 dpi; for IC50: Plasmodium vivax, Hepatocyte, 120 h, primary human hepatocytes, treatment day 5 to 8 post-infection, isolates 2 and 3
Method: We next evaluated the candidate compounds against liver-stage P. vivax (Fig. 5). P. vivax sporozoites were obtained from three independent patient isolates and cultured in primary human hepatocytes from a single donor lot using a 384-well microculture system as described previously. Cells were infected and treated with NMTis at 20 µM beginning day 5 post-infection until day 8 when the infection rates were quantified by fluorescent microscopy.
(§1) Accordingly, we applied dose–response curves of all the tested NMTs on parasite isolates 2 and 3 over concentrations up to 20 µM (Fig. 5c, d, Source Data file). We observed similar kinetics for all inhibitors, with a gradual decrease in parasite load upon increasing the drug concentration. […] Nuclei were counted in each well using DAPI staining as a measure of toxicity (Supplementary Fig. 86, Supplementary Source data). We used the phosphatidylinositol 4-kinase inhibitor (PI4Ki), MMV390048, as a positive control for eliminating schizonts[37],[38].
(§2) Plasmodium vivax liver stage assays were performed as described previously. Cryopreserved primary human hepatocytes (Cat No. F00995-P) and hepatocyte culture medium (HCM) (InVitroGroTM CP Medium) were obtained from Bioreclamation IVT, Inc., (Baltimore, MD, USA). Briefly, we seeded 384-well plates with primary hepatocytes from a single donor lot at a density of 25,000 cells per well. We then infected the hepatocytes with 14,000 freshly hand-dissected sporozoites per well. Cells were exposed to the compounds at indicated concentrations from day 5 post-infection. We used Pi4K inhibitor MMV390048, at 20 µM, as a positive control to eliminate P. vivax liver schizonts. We then proceeded to feed cultures every day, replacing the compounds until day 8 post-infection. Cells were fixed with 4% PFA, permeabilized with 1% Triton X-100, blocked with 2% BSA, and stained with DAPI and PvUIS4 antibodies to detect schizonts and hypnozoites forms by confocal microscopy. For antibody dilutions, PvUIS4 (kind gift from Dr. Noah Sather, Seattle Children’s Research Institute) was diluted 1:250 and the secondary antibody was anti-mouse AlexaFluor-594 (Cat # A-11005; RRID: AB_2534073) diluted 1:1000. DAPI was diluted 1:2000. The images were processed, analyzed and outlier cells were removed using IMARIS (Bitplane Inc.) image analysis software.

P. vivax hypnozoites = assay: P. vivax liver stage assay, hypnozoites; type: cell-based, Plasmodium vivax; settings: for Hypnozoites per well: Isolate 2, replicate wells (Figure 6d); for Number of liverstage hypnozoites per well: 8 dpi; for IC50: Hepatocyte, 120 h, primary human hepatocytes, treatment day 5 to 8 post-infection, isolate 2
Method: Finally, we evaluated the NMT-binding compounds against non-developing P. vivax hypnozoites. […] (Fig. 6A). […] We, therefore, evaluated the impact of all tested compounds on P. vivax hypnozoites using these two isolates.
as §2

[1] = test system: primary human hepatocytes; assay: Nuclear counts (DAPI) in P. vivax-infected primary hepatocytes as measure of toxicity; type: cell-based; settings: two technical replicates
Method: as §1, with “file).” for “file). We observed similar kinetics for all inhibitors, with a gradual decrease in parasite load upon increasing the drug concentration.”
as §2, with “For antibody dilutions, PvUIS4 (kind gift from Dr. Noah Sather, Seattle Children’s Research Institute) was diluted 1:250 and the secondary antibody was anti-mouse AlexaFluor-594 (Cat # A-11005; RRID: AB_2534073) diluted 1:1000.” left out
Supplementary Fig. 86. […] Nuclear […]
counts, normalized to DMSO controls, for NMT inhibitors across a dose response. Counts were ob-tained using DAPI staining from the P. vivax-infected wells quantified in Fig. 5d. Error bars represent the standard deviation of two technical replicates.
(1 picture or pasted object on this page, not shown here)

PvNMT = PvNMT (Plasmodium vivax, UniProt A5K1A2); assay: NMT activity assay (CPM detection of free CoA), PvNMT; settings: for IC50: PvNMT IC50, mean of two or more determinations; for SI: enzyme selectivity, HsNMT IC50/PvNMT IC50
HsNMT1 = target: T1, HsNMT1 (Homo sapiens, UniProt P30419); assay: NMT activity assay (CPM detection of free CoA), HsNMT
T1 sequence (P30419 1-496): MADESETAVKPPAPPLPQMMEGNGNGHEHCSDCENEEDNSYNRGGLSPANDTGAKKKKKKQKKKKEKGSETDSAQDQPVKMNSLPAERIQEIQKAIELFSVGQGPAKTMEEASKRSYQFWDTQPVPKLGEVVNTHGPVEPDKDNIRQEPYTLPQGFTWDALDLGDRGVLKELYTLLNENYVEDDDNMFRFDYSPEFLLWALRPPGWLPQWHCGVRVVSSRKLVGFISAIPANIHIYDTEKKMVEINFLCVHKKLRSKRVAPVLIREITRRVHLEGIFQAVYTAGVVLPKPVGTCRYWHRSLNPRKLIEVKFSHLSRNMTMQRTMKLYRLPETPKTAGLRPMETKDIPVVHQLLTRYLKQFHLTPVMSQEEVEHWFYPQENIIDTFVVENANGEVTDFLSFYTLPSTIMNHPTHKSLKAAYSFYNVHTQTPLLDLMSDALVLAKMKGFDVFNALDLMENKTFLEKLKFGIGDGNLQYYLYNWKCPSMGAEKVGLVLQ

[2] = isolate 1, technical replicates (Fig. 5b)
[3] = isolate 2, technical replicates (Fig. 5b)
[4] = isolate 3, technical replicates (Fig. 5b)
[5] = 20 µM, isolate 1, technical replicates (Fig. 6C)
[6] = 20 µM, isolate 2, technical replicates (Fig. 6C)
[7] = 20 µM, isolate 3, technical replicates (Fig. 6C)

Sequence of PvNMT (A5K1A2 entry or part of it): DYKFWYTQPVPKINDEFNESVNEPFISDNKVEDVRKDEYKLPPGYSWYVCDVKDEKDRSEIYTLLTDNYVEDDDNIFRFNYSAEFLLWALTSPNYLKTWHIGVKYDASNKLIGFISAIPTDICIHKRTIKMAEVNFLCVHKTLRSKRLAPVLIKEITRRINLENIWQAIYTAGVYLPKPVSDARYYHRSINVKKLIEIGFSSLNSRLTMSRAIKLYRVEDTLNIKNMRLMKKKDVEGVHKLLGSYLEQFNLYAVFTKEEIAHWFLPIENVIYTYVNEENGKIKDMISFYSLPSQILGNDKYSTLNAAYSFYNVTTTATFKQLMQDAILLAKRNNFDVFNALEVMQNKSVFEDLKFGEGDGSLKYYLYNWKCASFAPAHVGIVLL

Compound	Number of liverstage Schizonts per well (P. vivax schizonts; [2])	Number of liverstage Schizonts per well (P. vivax schizonts; [3])	Number of liverstage Schizonts per well (P. vivax schizonts; [4])	Schizonts per well (P. vivax schizonts; Isolate 2, 1.25 uM)	Schizonts per well (P. vivax schizonts; Isolate 2, 5 uM)	Schizonts per well (P. vivax schizonts; Isolate 3, 1.25 uM)	Schizonts per well (P. vivax schizonts; Isolate 3, 2.5 uM)	Schizonts per well (P. vivax schizonts; Isolate 3, 5 uM)	IC50 (P. vivax schizonts)	Hypnozoites per well (P. vivax hypnozoites; 1.25 uM)	Hypnozoites per well (P. vivax hypnozoites; 2.5 uM)	Hypnozoites per well (P. vivax hypnozoites; 5 uM)	Hypnozoites per well (P. vivax hypnozoites; 10 uM)	Number of liverstage hypnozoites per well (P. vivax hypnozoites; [5])	Number of liverstage hypnozoites per well (P. vivax hypnozoites; [6])	Number of liverstage hypnozoites per well (P. vivax hypnozoites; [7])	Hypnozoites per well (P. vivax hypnozoites; 20 uM)	IC50 (P. vivax hypnozoites; Plasmodium vivax)	Nucleus counts per well ([1]; 1 uM)	Nucleus counts per well ([1]; 2.5uM)	other results
Cc1nn(C)c(C)c1CCOc1cccnc1-c1ccnc(N2CCNCC2)c1 [Compound 12a]	5 per well and 3 per well and 1 per well	1 per well and 0 per well and 3 per well	2 per well and 6 per well	12 per well and 16 per well and 11 per well	8 per well and 10 per well and 7 per well	12 per well and 15 per well	12 per well and 9 per well	7 per well and 5 per well	3 to 3.8 µM	12 and 10 and 8	8 and 7 and 13	6 and 8 and 7	1 and 3 and 0	8 per well (2×) and 0 per well	0 per well (2×) and 3 per well	0 per well	0 (2×) and 3	5.7 µM	15610 per well and 14860 per well	15510 per well and 15490 per well	schizonts (fold change to DMSO) mean diff (P. vivax schizonts; isolate 1, 20 µM): 0.850; schizonts (fold change to DMSO) mean diff (P. vivax schizonts; isolate 2, 20 µM): 0.9245; schizonts (fold change to DMSO) mean diff (P. vivax schizonts; isolate 3, 20 µM): 0.7273; hypnozoites (fold change to DMSO) mean diff (P. vivax hypnozoites; isolate 1, 20 µM): 0.754; hypnozoites (fold change to DMSO) mean diff (P. vivax hypnozoites; isolate 2, 20 µM): 0.897; Nucleus counts per well ([1]; 5 uM): 15510 per well and 14150 per well; Nucleus counts per well ([1]; 10uM): 13830 per well and 15570 per well; Nucleus counts per well ([1]; 20uM, P. vivax-infected wells): 12100 per well and 13960 per well; IC50 (PvNMT): 0.0368 µM; SI (PvNMT): 146.7; IC50 (HsNMT1): 5.4 µM
Cc1nn(C)c(C)c1CCOc1cccnc1-c1cccc(N2CCNCC2)c1 [Compound 12b]	1 per well and 2 per well and 0 per well	2 per well (2×) and 4 per well	1 per well and 2 per well	12 per well and 11 per well and 9 per well	8 per well and 7 per well and 5 per well	11 per well and 15 per well	9 per well and 11 per well	8 per well and 10 per well	2.3 to 4.6 µM	3 and 4 (2×)	3 and 4 (2×)	2 (2×) and 3	1 (2×) and 0	5 per well and 9 per well and 0 per well	1 per well and 0 per well (2×)	0 per well	1 and 0 (2×)	1.7 µM	16000 per well and 15090 per well	15680 per well and 16210 per well	Schizonts per well (P. vivax schizonts; Isolate 2, 2.5 uM): 11 per well and 7 per well and 10 per well; Schizonts per well (P. vivax schizonts; Isolate 2, 10 uM): 2 per well and 4 per well; Schizonts per well (P. vivax schizonts; Isolate 3, 10 uM): 4 per well and 3 per well; Schizonts per well (P. vivax schizonts; Isolate 3, 20 uM (Fig. 5c-d)): 1 per well and 2 per well; Nucleus counts per well ([1]; 5 uM): 15950 per well and 14130 per well; Nucleus counts per well ([1]; 10uM): 15200 per well and 15960 per well; Nucleus counts per well ([1]; 20uM, P. vivax-infected wells): 12570 per well and 13810 per well; IC50 (PvNMT): 0.0802 µM and 0.0801 µM; SI (PvNMT): > 145 and > 150 and > 250; IC50 (HsNMT1): 20.8 µM
c1cncc(CCOc2ccc3ccccc3c2-c2ccnc(N3CCNCC3)c2)c1 [Compound 30c]	0 per well (2×) and 6 per well	3 per well and 4 per well and 6 per well	1 per well and 3 per well	12 per well and 14 per well and 13 per well	7 per well and 10 per well and 9 per well	13 per well and 10 per well	12 per well and 9 per well	7 per well and 10 per well	2.7 to 4.9 µM	8 and 15 and 7	5 and 6 and 12	0 and 5 and 13	5 and 0 and 4	0 per well and 1 per well and 4 per well	4 per well (2×) and 1 per well	0 per well	4 (2×) and 1	3.8 µM	12390 per well and 13530 per well	13960 per well and 13570 per well	Schizonts per well (P. vivax schizonts; Isolate 2, 2.5 uM): 9 per well and 14 per well and 11 per well; Schizonts per well (P. vivax schizonts; Isolate 2, 10 uM): 4 per well and 5 per well and 6 per well; Schizonts per well (P. vivax schizonts; Isolate 2, 20 uM (Fig. 5c-d)): 3 per well and 4 per well and 6 per well; schizonts (fold change to DMSO) mean diff (P. vivax schizonts; isolate 1, 20 µM): 0.900; schizonts (fold change to DMSO) mean diff (P. vivax schizonts; isolate 2, 20 µM): 0.7547; schizonts (fold change to DMSO) mean diff (P. vivax schizonts; isolate 3, 20 µM): 0.8636; inhibition at 20 µM (P. vivax hypnozoites; Plasmodium vivax, 20 µM): > 75%; hypnozoites (fold change to DMSO) mean diff (P. vivax hypnozoites; isolate 1, 20 µM): 0.939; hypnozoites (fold change to DMSO) mean diff (P. vivax hypnozoites; isolate 2, 20 µM): 0.690; Nucleus counts per well ([1]; 5 uM): 14060 per well and 13800 per well; Nucleus counts per well ([1]; 10uM): 13530 per well and 13880 per well; Nucleus counts per well ([1]; 20uM, P. vivax-infected wells): 14090 per well and 14800 per well; IC50 (PvNMT): 0.248 µM
